Where “and” joins values, the source holds several entries; their conditions need not be identical. Equal values may be shown once.
What was measured:
A53T mice = assay: Novel object recognition, A53T mice; format: in vivo, mouse; conditions: 5 mg/kg
Procedure: Novel object recognition was carried out using a 50 × 50 cm arena with clear walls covered by brown construction paper. Mice were habituated to the room for 30 min each day, before being allowed to freely explore the arena for 5 min two times, for 3 d. On the 4th d, two identical objects were placed in the arena in opposite adjacent corners, 10 cm from the corner of the arena. Mice were placed along the wall opposite from the objects and allowed to freely explore for 10 min. Approach behavior (extending nose toward the object) toward both objects was recorded manually using handheld stop watches and compared with ensure there was no preference for either neutral object. For the probe trial, one object was removed and replaced with a novel object, and mice were again allowed to freely explore for 10 min, with approach time towards the novel and familiar objects recorded. Trials in which the mice explored for less than 1 s were excluded. Discrimination index was calculated by dividing time spent exploring the novel object by total time exploring both objects and was compared for treated versus control animals.

mice [1] = assay: Rotarod (source data sheets only, mouse line not given); format: in vivo; conditions: for Rotarod trial 1 / Rotarod trial 2: Day 1; for Rotarod trial 1 / Rotarod trial 2 / Rotarod trial 3 / Rotarod trial 4 / Rotarod trial 5 / Rotarod trial 6 / Rotarod D1 AVG / Rotarod D2 AVG / Rotarod D3 AVG / Rotarod Total AVG: individual mice, listed as 143; for Rotarod trial 3 / Rotarod trial 4: Day 2; for Rotarod trial 5 / Rotarod trial 6: Day 3
mice [2] = assay: Elevated plus maze, source data sheets EPM (mouse line not given); format: in vivo; conditions: for EPM Trial 1 Closed Entries / EPM Trial 1 Open Entries / EPM Trial 2 Closed Entries / EPM Trial 2 Open Entries / EPM Trial 2 Time Closed / EPM Trial 1 Time Closed / EPM Trial 1 Time Open / EPM Trial 2 Time Open / EPM Totals Closed Entries / EPM Totals Open Entries / EPM Totals Time Closed / EPM Totals Time Open: individual mice; for EPM Trial 2 Time Closed / EPM Totals Time Closed / EPM Totals Time Open / Time Open: in s (unit assumed); for EPM Trial 1 Time Closed / EPM Trial 1 Time Open / EPM Trial 2 Time Open / Time Closed / Time Closed AVG / Time Open AVG: in s; for EPM Totals Closed Entries / EPM Totals Open Entries / EPM Totals Time Closed / EPM Totals Time Open: sum of trials 1 and 2; for Closed Entries AVG / Open Entries AVG / Time Closed AVG / Time Open AVG: group average
Procedure: The elevated plus maze was performed using a standard set up, with two enclosed arms and two open arms. Mice were placed at the intersection of the open and closed arms and allowed to freely explore for 5 min, two times. Time spent in the open and closed arms and number of entries into the open and closed arms were recorded.

[3] = ref Fowler et al, 2020; cited from earlier work
[4] = 2.5mg/kg, listed as 143, female mice
[5] = 2.5mg/kg, listed as 143, male mice
[6] = 5.0mg/kg, listed as 143, female mice
[7] = 5.0mg/kg, listed as 143, male mice
[8] = Totals (Trial 1 + Trial 2), individual animals, listed as 143
[9] = Trial 1, individual animals, listed as 143
[10] = Trial 2, individual animals, listed as 143

SMILES: Cc1cccc(-c2cc3nccc(Nc4ccccc4)c3s2)c1 [BK40143]
- novel object recognition (A53T mice): significant improvements on novel object recognition
- Rotarod D1 AVG, group mean (mice [1]; 2.5mg/kg): 20.1429 s
- Rotarod D2 AVG, group mean (mice [1]; 2.5mg/kg): 81.5714 s
- Rotarod D3 AVG, group mean (mice [1]; 2.5mg/kg): 111.786 s
- Rotarod Total AVG, group mean (mice [1]; 2.5mg/kg): 71.1667 s
- Rotarod trial 1 (mice [1]; 2.5mg/kg): 2 s and 8 s and 4 s and 23 s and 9 s and 22 s
- Rotarod trial 2 (mice [1]; 2.5mg/kg): 5 s and 11 s and 17 s and 22 s and 130 s and 10 s
- Rotarod trial 3 (mice [1]; 2.5mg/kg): 13 s and 135 s and 4 s and 46 s and 129 s and 117 s
- Rotarod trial 4 (mice [1]; 2.5mg/kg): 29 s and 169 s and 6 s and 101 s and 155 s and 230 s and 4 s
- Rotarod trial 5 (mice [1]; 2.5mg/kg): 15 s and 204 s and 111 s and 60 s and 154 s and 195 s and 10 s
- Rotarod trial 6 (mice [1]; 2.5mg/kg): 60 s and 172 s and 53 s and 88 s and 157 s and 272 s and 14 s
- Rotarod D1 AVG (mice [1]; 2.5mg/kg): 3.5 s and 9.5 s and 10.5 s and 12 s and 76.5 s and 13 s and 16 s
- Rotarod D2 AVG (mice [1]; 2.5mg/kg): 21 s and 152 s and 5 s and 73.5 s and 142 s and 117 s and 60.5 s
- Rotarod D3 AVG (mice [1]; 2.5mg/kg): 37.5 s and 188 s and 82 s and 74 s and 155.5 s and 233.5 s and 12 s
- Rotarod Total AVG (mice [1]; 2.5mg/kg): 20.6667 s and 116.5 s and 32.5 s and 53.1667 s and 124.667 s and 121.167 s and 29.5 s
- Rotarod D1 AVG, group mean (mice [1]; 5.0mg/kg): 27.2 s
- Rotarod D3 AVG, group mean (mice [1]; 5.0mg/kg): 90.7 s
- Rotarod trial 1 (mice [1]; 5.0mg/kg): 54 s and 21 s and 19 s and 2 s and 14 s and 5 s and 29 s and 3 s and 1 s
- Rotarod trial 2 (mice [1]; 5.0mg/kg): 96 s and 41 s and 147 s and 28 s and 9 s and 38 s and 8 s and 10 s and 16 s and 1 s
- Rotarod trial 3 (mice [1]; 5.0mg/kg): 47 s and 74 s and 152 s and 42 s and 51 s and 45 s and 18 s and 6 s and 5 s and 3 s
- Rotarod trial 4 (mice [1]; 5.0mg/kg): 46 s and 47 s and 178 s and 87 s and 35 s and 44 s and 66 s and 4 s and 32 s and 5 s
- Rotarod trial 5 (mice [1]; 5.0mg/kg): 80 s and 109 s and 179 s and 107 s and 92 s and 172 s and 35 s and 61 s and 62 s and 2 s
- Rotarod trial 6 (mice [1]; 5.0mg/kg): 110 s and 99 s and 139 s and 103 s and 133 s and 151 s and 84 s and 20 s and 69 s and 7 s
- Rotarod D1 AVG (mice [1]; 5.0mg/kg): 75 s and 31 s and 83 s and 15 s and 11.5 s and 20 s and 6.5 s and 19.5 s and 9.5 s and 1 s
- Rotarod D2 AVG (mice [1]; 5.0mg/kg): 46.5 s and 60.5 s and 165 s and 64.5 s and 43 s and 44.5 s and 42 s and 5 s and 18.5 s and 4 s
- Rotarod D3 AVG (mice [1]; 5.0mg/kg): 95 s and 104 s and 159 s and 105 s and 112.5 s and 161.5 s and 59.5 s and 40.5 s and 65.5 s and 4.5 s
- Rotarod Total AVG (mice [1]; 5.0mg/kg): 72.1667 s and 65.1667 s and 135.667 s and 61.5 s and 55.6667 s and 75.3333 s and 36 s and 21.6667 s and 31.1667 s and 3.167 s
- EPM Trial 1 Closed Entries (mice [2]; [4]): 7 and 2 and 1 and 3 and 5
- EPM Trial 1 Open Entries (mice [2]; [4]): 6 and 2 and 1 and 5 and 3
- EPM Trial 2 Closed Entries (mice [2]; [4]): 2 and 8 and 1 and 5
- EPM Trial 2 Open Entries (mice [2]; [4]): 1 and 6 and 0 and 4
- EPM Trial 2 Time Closed (mice [2]; [4]): 296 and 240 and 300 and 257 and 277
- EPM Trial 2 Time Closed (mice [2]; [5]): 251
- EPM Trial 1 Time Closed (mice [2]; [4]): 280 and 287 and 293 and 268 and 258 and 222
- EPM Trial 1 Time Open (mice [2]; [4]): 20 and 13 and 7 and 32 and 42 and 78
- EPM Trial 2 Time Open (mice [2]; [4]): 4 and 60 and 0 and 43 and 23
- EPM Trial 1 Time Closed (mice [2]; [5]): 255
- EPM Trial 1 Time Open (mice [2]; [5]): 45
- EPM Trial 2 Time Open (mice [2]; [5]): 49
- EPM Trial 1 Closed Entries (mice [2]; [5]): 10
- EPM Trial 1 Open Entries (mice [2]; [5]): 10
- EPM Trial 2 Closed Entries (mice [2]; [5]): 6
- EPM Trial 2 Open Entries (mice [2]; [5]): 8
- EPM Totals Closed Entries (mice [2]; [4]): 9 and 10 and 2 and 3 and 8 and 11
- EPM Totals Open Entries (mice [2]; [4]): 7 and 8 and 1 and 5 and 10
- EPM Totals Time Closed (mice [2]; [4]): 576 and 527 and 593 and 568 and 515 and 499
- EPM Totals Time Open (mice [2]; [4]): 24 and 73 and 7 and 32 and 85 and 101
- EPM Totals Time Closed (mice [2]; [5]): 506
- EPM Totals Time Open (mice [2]; [5]): 94
- EPM Totals Closed Entries (mice [2]; [5]): 16
- EPM Totals Open Entries (mice [2]; [5]): 18
- EPM Trial 1 Closed Entries (mice [2]; [6]): 2 and 3 and 5 and 4
- EPM Trial 1 Open Entries (mice [2]; [6]): 1 and 5 and 4
- EPM Trial 2 Closed Entries (mice [2]; [6]): 1 and 6 and 13
- EPM Trial 2 Open Entries (mice [2]; [6]): 0 and 6 and 1 and 7
- EPM Trial 2 Time Closed (mice [2]; [6]): 300 and 219 and 298 and 244
- EPM Trial 2 Time Closed (mice [2]; [7]): 237 and 280 and 238
- EPM Trial 1 Time Closed (mice [2]; [6]): 297 and 266 and 284 and 290 and 268 and 259
- EPM Trial 1 Time Open (mice [2]; [6]): 3 and 34 and 16 and 10 and 32 and 41
- EPM Trial 2 Time Open (mice [2]; [6]): 0 and 81 and 2 and 56
- EPM Trial 1 Time Closed (mice [2]; [7]): 300 and 261 and 228 and 166
- EPM Trial 1 Time Open (mice [2]; [7]): 0 and 39 and 72 and 134
- EPM Trial 2 Time Open (mice [2]; [7]): 63 and 20 and 62
- EPM Trial 1 Closed Entries (mice [2]; [7]): 1 and 6 and 9
- EPM Trial 1 Open Entries (mice [2]; [7]): 0 and 6 and 9
- EPM Trial 2 Closed Entries (mice [2]; [7]): 7 and 8
- EPM Trial 2 Open Entries (mice [2]; [7]): 3 and 8
- EPM Totals Closed Entries (mice [2]; [6]): 3 and 9 and 6 and 17
- EPM Totals Open Entries (mice [2]; [6]): 1 and 11 and 4 and 5
- EPM Totals Time Closed (mice [2]; [6]): 597 and 485 and 584 and 590 and 566 and 503
- EPM Totals Time Open (mice [2]; [6]): 3 and 115 and 16 and 10 and 34 and 97
- EPM Totals Time Closed (mice [2]; [7]): 600 and 498 and 508 and 404
- EPM Totals Time Open (mice [2]; [7]): 0 and 102 and 92 and 196
- EPM Totals Closed Entries (mice [2]; [7]): 2 and 11 and 13
- EPM Totals Open Entries (mice [2]; [7]): 0 and 9 and 17
- Closed Entries (mice [2]; [8]): 15 and 5 and 8 and 6 and 9 and 14 and 11
- Open Entries (mice [2]; [8]): 10 and 7 and 8 and 6 and 12 and 17
- Time Closed (mice [2]; [8]): 435 and 498 and 481 and 538 and 465 and 421 and 544 and 262 and 497 and 529
- Time Open (mice [2]; [8]): 165 and 102 and 119 and 62 and 135 and 179 and 56 and 338 and 103 and 71
- Closed Entries AVG (mice [2]; Totals): 11.2
- Open Entries AVG (mice [2]; Totals): 9.1
- Time Closed AVG (mice [2]; Totals): 467
- Time Open AVG (mice [2]; Totals): 133
- Closed Entries AVG (mice [2]; Trial 1): 6.6
- Open Entries AVG (mice [2]; Trial 1): 5.8
- Time Closed AVG (mice [2]; Trial 1): 206.8
- Time Open AVG (mice [2]; Trial 1): 93.2
- Closed Entries (mice [2]; [9]): 9 and 2 and 6 and 3 and 5 and 8 and 10 and 7
- Open Entries (mice [2]; [9]): 7 and 3 and 6 and 5 and 4 and 9
- Time Closed (mice [2]; [9]): 160 and 258 and 206 and 186 and 167 and 254 and 112 and 227 and 240
- Time Open (mice [2]; [9]): 140 and 42 and 94 and 114 and 133 and 46 and 188 and 73 and 60
- Closed Entries AVG (mice [2]; Trial 2): 4.6
- Open Entries AVG (mice [2]; Trial 2): 3.3
- Time Closed AVG (mice [2]; Trial 2): 260.2
- Time Open AVG (mice [2]; Trial 2): 39.8
- Closed Entries (mice [2]; [10]): 6 and 3 and 2 and 4 and 7
- Open Entries (mice [2]; [10]): 3 and 4 and 2 and 5 and 1 and 8
- Time Closed (mice [2]; [10]): 275 and 240 and 280 and 279 and 254 and 290 and 150 and 270 and 289
- Time Open (mice [2]; [10]): 25 and 60 and 20 and 21 and 46 and 10 and 150 and 30 and 11
- Time/Entry (mice [2]; total Time Open per total Open Entries, individual animals, listed as 143): 16.5 and 14.5714 and 14.875 and 8.857 and 22.5 and 14.9167 and 9.333 and 19.8824 and 10.3 and 8.875
- brain penetrance [3]: brain penetrant

Reference: paper PMC11249953, “c-KIT inhibitors reduce pathology and improve behavior in the Tg(SwDI) model of Alzheimer’s disease” (Life Science Alliance, 2024)
